According to patent publication US7767659B2, “Synthesis of naturally occurring ecteinascidins and related compounds” (Pharma Mar, S.A., priority 2002, dated 2010):
Read-outs that look alike come from different tables or passages of the source.

Columns and labels:
LoVo-Dox = assay: Inhibition of cells growth by colorimetric assay (SRB); settings: Homo sapiens, 48 h
Method in brief: (§1)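 Colorimetric SRB read (490 nm) on triplicate wells after 48 h at 37 °C, 5% CO2. Dose range 10 to 10^−8 μg/ml; 5×10^3 cells/well pre-attached 18 h.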

HeLa-APL = assay: as above; settings: Homo sapiens, 48 h
Method in brief: as §1

K-562 = assay: as above; settings: Homo sapiens, K562, 48 h
Method in brief: as §1

HeLa = assay: as above; settings: Homo sapiens, HeLa, 48 h
Method in brief: as §1

IGROV-1 = assay: as above; settings: Homo sapiens, IGROV-1, 48 h
Method in brief: as §1

SK-MEL-28 = assay: as above; settings: Homo sapiens, SK-MEL-28, 48 h
Method in brief: as §1

DU-145 = assay: as above; settings: Homo sapiens, DU-145, 48 h
Method in brief: as §1

IGROV-ET = assay: as above; settings: Homo sapiens, 48 h
Method in brief: as §1

LNCaP = assay: as above; settings: Homo sapiens, LNCaP, 48 h
Method in brief: as §1

PANC-1 = assay: as above; settings: Homo sapiens, PANC-1, 48 h
Method in brief: as §1

SK-BR-3 = assay: as above; settings: Homo sapiens, SK-BR-3, 48 h
Method in brief: as §1

LoVo = assay: cells; settings: Homo sapiens, LoVo, 48 h
Method in brief: as §1

HT-29 = assay: cells; settings: Homo sapiens, HT-29, 48 h
Method in brief: as §1

A-549 = assay: cells; settings: Homo sapiens, A549, 48 h
Method in brief: as §1

## C=CCN1[C@@H]2c3c(cc(C)c(OC)c3O)C[C@H]1[C@H](O)N1C2[C@@H]2SC[C@]3(NCCc4cc(O)c(OC)cc43)C(=O)OC[C@H]1c1c3c(c(C)c(OC(C)=O)c12)OCO3 (stereo partly drawn) [compound 67]
LoVo-Dox; read-out: LOVO-DOX GI50
  GI50: 368 nM
LoVo-Dox; read-out: LOVO-DOX LC50
  CC50: 12700 nM
LoVo-Dox; read-out: LOVO-DOX TGI
  IC (TGI): 975 nM
HeLa-APL; read-out: HELA-APL GI50
  GI50: 29.7 nM
HeLa-APL; read-out: HELA-APL LC50
  CC50: 327 nM
HeLa-APL; read-out: HELA-APL TGI
  IC (TGI): 64.7 nM
K-562; read-out: K562 GI50
  GI50: 33.9 nM
K-562; read-out: K562 LC50
  CC50: 2090 nM
K-562; read-out: K562 TGI
  IC (TGI): 39.7 nM
HeLa; read-out: HELA GI50
  GI50: 30.2 nM
HeLa; read-out: HELA LC50
  CC50: 395 nM
HeLa; read-out: HELA TGI
  IC (TGI): 67.4 nM
IGROV-1; read-out: IGROV GI50
  GI50: 31.2 nM
IGROV-1; read-out: IGROV LC50
  CC50: 685 nM
IGROV-1; read-out: IGROV TGI
  IC (TGI): 78.6 nM
SK-MEL-28; read-out: MEL-28 GI50
  GI50: 20.4 nM
SK-MEL-28; read-out: MEL-28 LC50
  CC50: 100 nM
SK-MEL-28; read-out: MEL-28 TGI
  IC (TGI): 45.3 nM
DU-145; read-out: DU145 GI50
  GI50: 35.9 nM
DU-145; read-out: DU145 LC50
  CC50: 3500 nM
DU-145; read-out: DU145 TGI
  IC (TGI): 75.4 nM
IGROV-ET; read-out: IGROV-ET GI50
  GI50: 26.8 nM
IGROV-ET; read-out: IGROV-ET LC50
  CC50: 2680 nM
IGROV-ET; read-out: IGROV-ET TGI
  IC (TGI): 62.7 nM
LNCaP; read-out: LNCAP GI50
  GI50: 3 nM
LNCaP; read-out: LNCAP LC50
  CC50: 37.4 nM
LNCaP; read-out: LNCAP TGI
  IC (TGI): 9 nM
PANC-1; read-out: PANC-1 GI50
  GI50: 27.4 nM
PANC-1; read-out: PANC-1 LC50
  CC50: 2780 nM
PANC-1; read-out: PANC-1 TGI
  IC (TGI): 92.7 nM
SK-BR-3; read-out: SK-BR3 GI50
  GI50: 8.71 nM
SK-BR-3; read-out: SK-BR3 LC50
  CC50: 284 nM
SK-BR-3; read-out: SK-BR3 TGI
  IC (TGI): 37.4 nM
LoVo; read-out: LOVO GI50
  GI50: 28.6 nM
LoVo; read-out: LOVO LC50
  CC50: 10600 nM
LoVo; read-out: LOVO TGI
  IC (TGI): 73 nM
HT-29; read-out: HT29 GI50
  GI50: 37.9 nM
HT-29; read-out: HT29 LC50
  CC50: 11900 nM
HT-29; read-out: HT29 TGI
  IC (TGI): 102 nM
A-549; read-out: A549 GI50
  GI50: 32.7 nM
A-549; read-out: A549 LC50
  CC50: 797 nM
A-549; read-out: A549 TGI
  IC (TGI): 68.7 nM

## COc1c(C)cc2c(c1O)[C@@H]1C3[C@@H]4SC[C@]5(NCCc6c5[nH]c5ccccc65)C(=O)OC[C@@H](c5c6c(c(C)c(OC(C)=O)c54)OCO6)N3[C@@H](C#N)[C@H](C2)N1C (stereo partly drawn) [compound 22]
LoVo-Dox; read-out: GI50 LOVO-DOX
  GI50: 87.4 nM
LoVo-Dox; read-out: LC50 LOVO-DOX
  CC50: 13100 nM
LoVo-Dox; read-out: TGI LOVO-DOX
  IC (TGI): 524 nM
HeLa-APL; read-out: GI50 HELA-APL
  GI50: 21.1 nM
HeLa-APL; read-out: LC50 HELA-APL
  CC50: 93.5 nM
HeLa-APL; read-out: TGI HELA-APL
  IC (TGI): 44.4 nM
K-562; read-out: GI50 K562
  GI50: 5.92 nM
K-562; read-out: LC50 K562
  CC50: 840 nM
K-562; read-out: TGI K562
  IC (TGI): 42.4 nM
HeLa; read-out: GI50 HELA
  GI50: 33.2 nM
HeLa; read-out: LC50 HELA
  CC50: 158 nM
HeLa; read-out: TGI HELA
  IC (TGI): 56.6 nM
IGROV-1; read-out: GI50 IGROV
  GI50: 19.1 nM
IGROV-1; read-out: LC50 IGROV
  CC50: 104 nM
IGROV-1; read-out: TGI IGROV
  IC (TGI): 44.6 nM
SK-MEL-28; read-out: GI50 MEL-28
  GI50: 30.2 nM
SK-MEL-28; read-out: LC50 MEL-28
  CC50: 102 nM
SK-MEL-28; read-out: TGI MEL-28
  IC (TGI): 55.5 nM
DU-145; read-out: GI50 DU145
  GI50: 29.6 nM
DU-145; read-out: LC50 DU145
  CC50: 1310 nM
DU-145; read-out: TGI DU145
  IC (TGI): 86.8 nM
IGROV-ET; read-out: GI50 IGROV-ET
  GI50: 52.2 nM
IGROV-ET; read-out: LC50 IGROV-ET
  CC50: 131 nM
IGROV-ET; read-out: TGI IGROV-ET
  IC (TGI): 104 nM
LNCaP; read-out: GI50 LNCAP
  GI50: 6.15 nM
LNCaP; read-out: LC50 LNCAP
  CC50: 55 nM
LNCaP; read-out: TGI LNCAP
  IC (TGI): 21.1 nM
PANC-1; read-out: GI50 PANC-1
  GI50: 29.6 nM
PANC-1; read-out: LC50 PANC-1
  CC50: 854 nM
PANC-1; read-out: TGI PANC-1
  IC (TGI): 73.8 nM
SK-BR-3; read-out: GI50 SK-BR3
  GI50: 5.77 nM
SK-BR-3; read-out: LC50 SK-BR3
  CC50: 120 nM
SK-BR-3; read-out: TGI SK-BR3
  IC (TGI): 22.3 nM
LoVo; read-out: GI50 LOVO
  GI50: 20.3 nM
LoVo; read-out: LC50 LOVO
  CC50: 96.5 nM
LoVo; read-out: TGI LOVO
  IC (TGI): 41.1 nM
HT-29; read-out: GI50 HT29
  GI50: 29.7 nM
HT-29; read-out: LC50 HT29
  CC50: 13100 nM
HT-29; read-out: TGI HT29
  IC (TGI): 82.5 nM
A-549; read-out: GI50 A549
  GI50: 26.7 nM
A-549; read-out: LC50 A549
  CC50: 131 nM
A-549; read-out: TGI A549
  IC (TGI): 59 nM
